According to US7910751B2, “Heterocyclidene acetamide derivative” (Mochida Pharmaceutical Co., Ltd., priority 2005, dated 2011):

biological target: T1, human TRPV1 (Homo sapiens, UniProt Q8NER1); test: Measurement of capsaicin-induced Ca influx in human TRPV1 transformed CHO cell line using FDSS-6000; format: cell-based; conditions: concentration at which the capsaicin concentration-reaction curve is shifted two times to the right, human TRPV1 transformed CHO cells
T1 construct: expressed in transfected cells; host or cells: CHO-K1
T1 sequence (Q8NER1 whole entry): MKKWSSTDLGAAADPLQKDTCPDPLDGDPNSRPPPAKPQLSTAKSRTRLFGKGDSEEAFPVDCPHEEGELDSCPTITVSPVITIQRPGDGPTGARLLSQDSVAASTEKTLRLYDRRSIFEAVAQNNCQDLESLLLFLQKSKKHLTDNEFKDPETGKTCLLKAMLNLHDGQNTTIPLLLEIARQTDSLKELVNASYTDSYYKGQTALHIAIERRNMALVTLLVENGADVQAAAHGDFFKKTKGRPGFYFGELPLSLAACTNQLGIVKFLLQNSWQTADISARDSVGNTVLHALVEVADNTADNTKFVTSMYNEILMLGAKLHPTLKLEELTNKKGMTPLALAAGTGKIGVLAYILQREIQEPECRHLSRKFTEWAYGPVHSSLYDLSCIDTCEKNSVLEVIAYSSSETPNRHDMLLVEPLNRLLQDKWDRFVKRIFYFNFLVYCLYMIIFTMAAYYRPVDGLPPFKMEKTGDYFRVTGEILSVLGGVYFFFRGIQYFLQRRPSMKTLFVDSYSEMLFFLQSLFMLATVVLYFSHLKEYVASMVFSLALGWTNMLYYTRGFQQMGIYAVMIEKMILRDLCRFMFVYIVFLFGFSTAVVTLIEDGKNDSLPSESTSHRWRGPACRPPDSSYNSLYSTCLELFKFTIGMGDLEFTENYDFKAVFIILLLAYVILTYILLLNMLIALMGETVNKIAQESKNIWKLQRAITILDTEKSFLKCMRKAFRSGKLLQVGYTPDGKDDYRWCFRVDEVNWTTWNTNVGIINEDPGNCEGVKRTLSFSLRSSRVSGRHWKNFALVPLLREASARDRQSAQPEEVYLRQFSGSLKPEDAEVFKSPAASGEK

Compound | A2 VALUE
CCC(F)(F)C(=O)N1CC/C(=C\C(=O)Nc2cccc3c2CC(O)CN3)c2ccc(C(F)(F)F)cc21 (stereo not shown) [Example 184, (E)-2-(1-(2,2-difluorobutanoyl)-7-trifluoromethyl-2,3-dihydroquinolin-4(1H)-ylidene)-N-(3-hydroxy-1,2,3,4-tetrahydroquinolin-5-yl)acetamide] | A (compounds of the present invention having an A2 value of less than 100 nM are represented by A)
CCC(F)(F)C(=O)N1CC/C(=C\C(=O)Nc2cccc3c2CC(O)C(=O)N3)c2ccc(C(F)(F)F)cc21 (stereo not shown) [Example 185, (E)-2-(1-(2,2-difluorobutanoyl)-7-trifluoromethyl-2,3-dihydroquinolin-4(1H)-ylidene)-N-(3-hydroxy-2-oxo-1,2,3,4-tetrahydroquinolin-5-yl)acetamide] | A (compounds of the present invention having an A2 value of less than 100 nM are represented by A)
CCCCC(=O)N1CCC/C(=C\C(=O)Nc2cccc3c2CC(O)CC3)c2ccc(C(F)(F)F)cc21 (stereo not shown) [Example 190, (E)-2-(8-trifluoromethyl-1-pentanoyl-1,2,3,4-tetrahydro-5H-benzo[b]azepin-5-ylidene)-N-(7-hydroxy-5,6,7,8-tetrahydronaphthalen-1-yl)acetamide] | A (compounds of the present invention having an A2 value of less than 100 nM are represented by A)
O=C(/C=C1\CCCNc2cc(C(F)(F)F)ccc21)Nc1ccc2cccnc2c1 [Example 191, (E)-2-(8-trifluoromethyl-1,2,3,4-tetrahydro-5H-benzo[b]azepin-5-ylidene)-N-(quinolin-7-yl)acetamide] | A (compounds of the present invention having an A2 value of less than 100 nM are represented by A)
CCCCC(=O)N1CCC/C(=C\C(=O)Nc2ccc3cccnc3c2)c2ccc(C(F)(F)F)cc21 [Example 192, (E)-2-(1-pentanoyl-8-trifluoromethyl-1,2,3,4-tetrahydro-5H-benzo[b]azepin-5-ylidene)-N-(quinolin-7-yl)acetamide] | A (compounds of the present invention having an A2 value of less than 100 nM are represented by A)
O=C(/C=C1\CCCN(C(=O)C2CCCC2)c2cc(C(F)(F)F)ccc21)Nc1ccc2cccnc2c1 [Example 193, (E)-2-(1-cyclopentanecarbonyl-8-trifluoromethyl-1,2,3,4-tetrahydro-5H-benzo[b]azepin-5-ylidene)-N-(quinolin-7-yl)acetamide] | A (compounds of the present invention having an A2 value of less than 100 nM are represented by A)
Cc1ccc(S(=O)(=O)N2CCC/C(=C\C(=O)Nc3ccc4cccnc4c3)c3ccc(C(F)(F)F)cc32)cc1 [Example 194, (E)-2-(1-(4-methylbenzenesulfonyl)-8-trifluoromethyl-1,2,3,4-tetrahydro-5H-benzo[b]azepin-5-ylidene)-N-(quinolin-7-yl)acetamide] | B (compounds having an A2 value of 100 nM or more are represented by B)
CC(=O)N1CCC/C(=C\C(=O)Nc2ccc3cccnc3c2)c2ccc(C(F)(F)F)cc21 [Example 195, (E)-2-(1-acetyl-8-trifluoromethyl-1,2,3,4-tetrahydro-5H-benzo[b]azepin-5-ylidene)-N-(quinolin-7-yl)acetamide] | B (compounds having an A2 value of 100 nM or more are represented by B)
CN1CCC/C(=C\C(=O)Nc2ccc3cccnc3c2)c2ccc(C(F)(F)F)cc21 [Example 196, (E)-2-(1-methyl-8-trifluoromethyl-1,2,3,4-tetrahydro-5H-benzo[b]azepin-5-ylidene)-N-(quinolin-7-yl)acetamide] | A (compounds of the present invention having an A2 value of less than 100 nM are represented by A)
O=C(/C=C1\CCCN(CC2CCCC2)c2cc(C(F)(F)F)ccc21)Nc1ccc2cccnc2c1 [Example 197, (E)-2-(1-cyclopentylmethyl-8-trifluoromethyl-1,2,3,4-tetrahydro-5H-benzo[b]azepin-5-ylidene)-N-(quinolin-7-yl)acetamide] | A (compounds of the present invention having an A2 value of less than 100 nM are represented by A)
CN1CCC/C(=C\C(=O)Nc2cccc3ccc(O)cc23)c2ccc(C(F)(F)F)cc21 [Example 198, (E)-2-(1-methyl-8-trifluoromethyl-1,2,3,4-tetrahydro-5H-benzo[b]azepin-5-ylidene)-N-(7-hydroxynaphthalen-1-yl)acetamide] | A (compounds of the present invention having an A2 value of less than 100 nM are represented by A)
CN1CCC/C(=C\C(=O)Nc2cccc3c2CC(O)CC3)c2ccc(C(F)(F)F)cc21 (stereo not shown) [Example 199, (E)-2-(1-methyl-8-trifluoromethyl-1,2,3,4-tetrahydro-5H-benzo[b]azepin-5-ylidene)-N-(7-hydroxy-5,6,7,8-tetrahydronaphthalen-1-yl)acetamide] | A (compounds of the present invention having an A2 value of less than 100 nM are represented by A)
O=C(/C=C1\CCN(c2ncc(CO)cc2Cl)c2cc(C(F)(F)F)ccc21)Nc1cccc2c1CC(O)CC2 (stereo not shown) [Example 200, (E)-2-(1-(3-chloro-5-hydroxymethyl-pyridin-2-yl)-7-trifluoromethyl-2,3-dihydroquinolin-4(1H)-ylidene)-N-(7-hydroxy-5,6,7,8-tetrahydronaphthalen-1-yl)acetamide] | A (compounds of the present invention having an A2 value of less than 100 nM are represented by A)
O=C(/C=C1\CCOc2cc(C(F)(F)F)ccc21)Nc1cccc2c1CCCC2 [Example 202, (E)-2-(7-trifluoromethyl-chroman-4-ylidene)-N-(5,6,7,8-tetrahydronaphthalen-1-yl)acetamide] | A (compounds of the present invention having an A2 value of less than 100 nM are represented by A)
Cc1sc2cnccc2c1NC(=O)/C=C1\CCOc2cc(C(F)(F)F)ccc21 [Example 204, (E)-2-(7-trifluoromethyl-chroman-4-ylidene)-N-(2-methylthieno[2,3-c]pyridin-3-yl)acetamide] | A (compounds of the present invention having an A2 value of less than 100 nM are represented by A)
CC(C)c1ccc2c(c1)OCC/C2=C\C(=O)Nc1cccc2c1CC(O)CC2 (stereo not shown) [Example 206, (E)-2-(7-isopropyl-chroman-4-ylidene)-N-(7-hydroxy-5,6,7,8-tetrahydronaphthalen-1-yl)acetamide] | A (compounds of the present invention having an A2 value of less than 100 nM are represented by A)
CC(C)c1ccc2c(c1)OCC/C2=C\C(=O)Nc1cccc2c1CC(O)CN2 (stereo not shown) [Example 207, (E)-2-(7-isopropyl-chroman-4-ylidene)-N-(3-hydroxy-1,2,3,4-tetrahydroquinolin-5-yl)acetamide] | A (compounds of the present invention having an A2 value of less than 100 nM are represented by A)
O=C(/C=C1\CCOc2cc(Cl)ccc21)Nc1cccc2c1CC(O)CC2 (stereo not shown) [Example 208, (E)-2-(7-chloro-chroman-4-ylidene)-N-(7-hydroxy-5,6,7,8-tetrahydronaphthalen-1-yl)acetamide] | A (compounds of the present invention having an A2 value of less than 100 nM are represented by A)
O=C(/C=C1\CCOc2cc(Cl)ccc21)Nc1cccc2c1CC(O)CN2 (stereo not shown) [Example 209, (E)-2-(7-chloro-chroman-4-ylidene)-N-(3-hydroxy-1,2,3,4-tetrahydroquinolin-5-yl)acetamide] | A (compounds of the present invention having an A2 value of less than 100 nM are represented by A)
